Test results: US10357536B2, “Anti-pathogenic methods” (Hexima Limited, priority 2012, dated 2019)
“Also recorded” adds a separate entry of the source. No end group written: not given here.

Legend:
[1] = system: hyphal cells; assay type: cell-based
[2] = system: Fgr hyphae; assay type: cell-based, Fusarium graminearum
[3] = system: Fov hyphae; assay type: cell-based, Fusarium oxysporum f. sp vasinfectum

Substance	Permeabilizing [1]	Permeability index [2]	permeabilization of Fgr hyphae (SYTOX green uptake), in words [2]	Permeability index [3]	permeabilization of Fov hyphae (SYTOX green uptake), in words [3]
HXL004: Class I plant defensin, Nicotiana benthamiana, mature domain SEQ ID NO: 12 (RTCESQSHRFKGLCFSRSNCASVCHTEGFNGGHCRGFRRRCFCTRHC; HXL004 Nicotiana benthamiana mature domain aa)	Yes	1.6	significantly more permeabilisation of Fgr hyphae; also recorded: permeabilizing	–	–
HXL015: Class I plant defensin, Oryza sativa, mature domain SEQ ID NO: 45 (RHCLSQSHRFKGMCVSSNNCANVCRTESFPDGECKSHGLERKCFCKKVC; HXL015 Oryza sativa mature domain aa)	No	–	–	–	–
HXL005: Class I plant defensin, Taraxacum kok-saghyz, mature domain SEQ ID NO: 15 (KMCQTTSHAFSCVNDSGCSGSCEKQGFASGKCDGVRRRCTCYKKC; HXL005 Taraxacum kok-saghyz mature domain)	No	–	–	–	–
NoD173: Class II plant defensin, Nicotiana occidentalis, mature domain SEQ ID NO: 98 (RQCKAESNTFTGICIAKPPCRQACIREKFTDGHCSKVLRRCLCTKRC; NoD173 Nictoniana occidentalis)	Yes	–	–	–	–
HXL001: Class I plant defensin, Zea mays, mature domain SEQ ID NO: 3 (RHCLSQSHRFKGLCMSSNNCANVCETQNFPGGECKAEGATRKCFCKKIC; HXL001 Zea mays mature domain)	Yes	0.9	–	–	–
HXP34: artificial variant defensin, SEQ ID NO: 71 (RECKTESQHHSFPCITKPPCRKACISEKFTDGHCSKILRRCLCTKPC; Amino acid sequence of HXP34 (Zea2 Loop1B [Zea2L1B] in NaD1))	Yes	–	–	–	–
HXL013: Class I plant defensin, Glycine max, mature domain SEQ ID NO: 39; Table 2 gives SBI6 the same SEQ ID NO (KDCLTRRHGFQGRCLFDRQCAHVCRSDGPIGGQCRGPLRKCFCSRPC; HXL013 Glycine max mature domain aa)	Yes	1.4	permeabilizing	–	–
HXL009: Class I plant defensin, Zea mays, mature domain SEQ ID NO: 27 (TVCMRHNNFYHGPCMSNKDCANSCVQHNLGVGGYCRGKIPFNKECMCTFEC; HXL009 Zea mays mature domain aa)	No	0.4	non-permeabilizing	–	–
VP42: Class I plant defensin, Triticum aestivum, mature domain SEQ ID NO: 81 (RHCESQSHRYRGACWRDDNCKHVCNTEGFPSGKCKFHGFESKCVCTKPC; VP42 mature domain)	No	–	–	–	–
VP45: Class I plant defensin, Zea mays, mature domain SEQ ID NO: 83 (TVCMRHNNFYHGPCMSNKDCANSCVQHNLGVGGYCRGKIPFNKECMCTFEC; VP45 mature domain)	No	–	–	–	–
HXL008: Class I plant defensin, Picramnia pentandra, mature domain SEQ ID NO: 24 (KVCTKPSKFFKGLCGTDGACTTACRKEGLHSGYCQLKGFLNSVCVCRKHC; HXL008 Picramnia pentandra mature domain aa)	Yes	0.9	significantly more permeabilisation of Fgr hyphae; also recorded: permeabilizing	0.8	able to permeabilize Fov hyphae; also recorded: permeabilizing
NaD1: Class II plant defensin, Nicotiana alata, accession Q8GTM0; positive control of the permeabilization assay (RECKTESNTFPGICITKPPCRKACISEKFTDGHCSKILRRCLCTKPC; UniProt Q8GTM0 26-72, looked up) [reference compound]	Yes	1.0	significantly more permeabilisation of Fgr hyphae; also recorded: permeabilizing	1.0	able to permeabilize Fov hyphae; also recorded: permeabilizing
HXL021: Class I plant defensin, Arachis hypogaea, mature domain SEQ ID NO: 63 (ATCENLADTYRGPCFTTGSCDDHCKNKEHLLSGRCRDDFRCWCTRNC; HXL021 Arachis hypogaea mature domain aa)	No	0.5	non-permeabilizing	–	–
HXP4: artificial variant defensin, SEQ ID NO: 70 (RECKTESHRFKGPCITKPPCRKACISEKFTDGHCSKILRRCLCTKPC; Amino acid sequence of HXP4 (NaD2 Loop1B [NaD2L1B] in NaD1))	Yes	1.3	significantly more permeabilisation of Fgr hyphae; also recorded: permeabilizing	0.7	able to permeabilize Fov hyphae; also recorded: permeabilizing
VP135: Class I plant defensin, Picramnia pentandra, mature domain SEQ ID NO: 85 (RICSSLSHGYKGPCASDHNCALVCRNEGFSGGDCHGLRRRCFCTKAC; VP135 mature domain)	No	–	–	–	–
HXP35: artificial variant defensin, SEQ ID NO: 72 (RECKTESDTYRGVCITKPPCRKACISEKFTDGHCSKILRRCLCTKPC; Amino acid sequence of HXP35 (PsD1 Loop1B [PsDL1B] in NaD1))	Yes	–	–	–	–
RsAFP2: Class I plant defensin, Raphanus sativus, accession P30230 (QKLCQRPSGTWSGVCGNNNACKNQCIRLEKARHGSCNYVFPAHKCICYFPC; ends and bridges not checked; cysteine pairing not given here; UniProt P30230 30-80, looked up)	No	0.3	non-permeabilizing	–	–
HXL002: Class I plant defensin, Triticum aestivum, mature domain SEQ ID NO: 6 (RDCLSQSHKFKGACLSSSNCAAVCRTENFPDGECHTHNFARKCFCKRAC; HXL002 Triticum aestivum mature domain)	Yes	1.0	significantly more permeabilisation of Fgr hyphae; also recorded: permeabilizing	0.9	able to permeabilize Fov hyphae; also recorded: permeabilizing
HXL007: Class I plant defensin, Cyamopsis tetragonoloba, mature domain SEQ ID NO: 21 (RTCESLADTYRGPCFTDGSCDDHCKNKEHLISGRCRNDFRCWCTRNC; HXL007 Cyamopsis tetragonoloba mature domain)	Yes	–	–	1.2	able to permeabilize Fov hyphae; also recorded: permeabilizing
Hordothionin: Class I plant defensin, Hordeum vulgare, accession P20230	No	0.4	non-permeabilizing	–	–
